Experimental data reported in PubChem BioAssay (NCI).
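Values below derive from 48-hour exposures of cells grown in 96-well plates, with endpoints linearly interpolated between the two concentrations bracketing the appropriate inhibition level. TGI: concentration producing complete growth inhibition.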

Columns and labels:
Experiment in all cases: DTP human tumour cell line panel, 48 h
CAKI-1 renal = tested on: CAKI-1 renal
MCF7 breast = tested on: MCF7 breast
MALME-3M melanoma = tested on: MALME-3M melanoma
UACC-62 melanoma = tested on: UACC-62 melanoma
SNB-75 CNS = tested on: SNB-75 CNS
SR leukemia = tested on: SR leukemia
SNB-19 CNS = tested on: SNB-19 CNS
HCT-15 colon = tested on: HCT-15 colon
NCI/ADR-RES ovarian = tested on: NCI/ADR-RES ovarian
HS 578T breast = tested on: HS 578T breast

SMILES: CCC(=O)Nc1ccc(N2C(=O)C(Cl)C2c2ccc(SC)cc2)cc1 (centres undefined)
- TGI (CAKI-1 renal): > 100 µM
- TGI (MCF7 breast): > 100 µM
- TGI (MALME-3M melanoma): > 100 µM
- TGI (UACC-62 melanoma): > 100 µM
- TGI (SNB-75 CNS): > 100 µM
- TGI (SR leukemia): > 100 µM
- TGI (SNB-19 CNS): > 100 µM
- TGI (HCT-15 colon): > 100 µM
- TGI (NCI/ADR-RES ovarian): > 100 µM
- TGI (HS 578T breast): > 100 µM

SMILES: Cn1c(-c2cccc([N+](=O)[O-])c2)[n+](C)c2ccccc21
- TGI (CAKI-1 renal): > 100 µM
- TGI (MCF7 breast): > 100 µM
- TGI (MALME-3M melanoma): > 100 µM
- TGI (UACC-62 melanoma): > 100 µM
- TGI (SNB-75 CNS): > 100 µM
- TGI (SR leukemia): > 100 µM
- TGI (SNB-19 CNS): > 100 µM
- TGI (HCT-15 colon): > 100 µM
- TGI (NCI/ADR-RES ovarian): > 100 µM
- TGI (HS 578T breast): > 100 µM

SMILES: CC(C)/C(Cl)=N\OC(=O)Nc1cccc(Cl)c1
- TGI (CAKI-1 renal): 34.8 µM
- TGI (MCF7 breast): 32 µM
- TGI (MALME-3M melanoma): 24.1 µM
- TGI (UACC-62 melanoma): 46.3 µM
- TGI (SNB-75 CNS): 33.2 µM
- TGI (SR leukemia): 7.22 µM
- TGI (SNB-19 CNS): > 100 µM
- TGI (HCT-15 colon): 31.3 µM
- TGI (NCI/ADR-RES ovarian): > 57 µM
- TGI (HS 578T breast): 72.8 µM

SMILES: O=[N+]([O-])c1cc(-c2nc(-c3ccccc3)c(-c3ccccc3)[nH]2)c(O)c([N+](=O)[O-])c1
- TGI (CAKI-1 renal): 77.6 µM
- TGI (MCF7 breast): 72.9 µM
- TGI (MALME-3M melanoma): 52 µM
- TGI (UACC-62 melanoma): 33.8 µM
- TGI (SNB-75 CNS): 60 µM
- TGI (SR leukemia): 58.7 µM
- TGI (SNB-19 CNS): > 100 µM
- TGI (HCT-15 colon): 33.6 µM
- TGI (NCI/ADR-RES ovarian): 56.7 µM
- TGI (HS 578T breast): > 100 µM

SMILES: COC(=O)c1ccccc1C1CN=NC12Cc1cc(C)ccc1C2=O (centres undefined)
- TGI (CAKI-1 renal): > 100 µM
- TGI (MCF7 breast): 75.4 µM
- TGI (MALME-3M melanoma): > 100 µM
- TGI (UACC-62 melanoma): > 100 µM
- TGI (SNB-75 CNS): > 100 µM
- TGI (SR leukemia): > 100 µM
- TGI (SNB-19 CNS): > 100 µM
- TGI (HCT-15 colon): > 100 µM
- TGI (NCI/ADR-RES ovarian): > 100 µM
- TGI (HS 578T breast): > 100 µM

SMILES: COC(=O)C(CCSC)NC(=O)Cc1ccc(C(=O)c2ccccc2)cc1 (centres undefined)
- TGI (CAKI-1 renal): > 100 µM
- TGI (MCF7 breast): > 100 µM
- TGI (MALME-3M melanoma): > 100 µM
- TGI (UACC-62 melanoma): > 100 µM
- TGI (SNB-75 CNS): > 100 µM
- TGI (SR leukemia): > 100 µM
- TGI (SNB-19 CNS): > 100 µM
- TGI (HCT-15 colon): > 100 µM
- TGI (NCI/ADR-RES ovarian): 91.5 µM
- TGI (HS 578T breast): > 100 µM

SMILES: CCCCn1c2c(n(CCCC)c1=S)-c1c(n(CCCC)c(=S)n1CCCC)SSc1c(n(CCCC)c(=S)n1CCCC)-c1c(n(CCCC)c(=S)n1CCCC)SSc1c(n(CCCC)c(=S)n1CCCC)-c1c(n(CCCC)c(=S)n1CCCC)SS2
- TGI (CAKI-1 renal): > 40.2 µM
- TGI (MCF7 breast): 48 µM
- TGI (MALME-3M melanoma): 6.19 µM
- TGI (UACC-62 melanoma): 20.3 µM
- TGI (SNB-75 CNS): > 50 µM
- TGI (SR leukemia): > 50 µM
- TGI (SNB-19 CNS): > 50 µM
- TGI (HCT-15 colon): 30.4 µM
- TGI (NCI/ADR-RES ovarian): > 50 µM
- TGI (HS 578T breast): > 50 µM

SMILES: Cc1ccnc(NC(NC(=O)c2ccccc2)(C(F)(F)F)C(F)(F)F)c1
- TGI (CAKI-1 renal): > 100 µM
- TGI (MCF7 breast): > 100 µM
- TGI (MALME-3M melanoma): > 100 µM
- TGI (UACC-62 melanoma): > 100 µM
- TGI (SNB-75 CNS): > 100 µM
- TGI (SR leukemia): > 100 µM
- TGI (SNB-19 CNS): > 100 µM
- TGI (HCT-15 colon): > 100 µM
- TGI (NCI/ADR-RES ovarian): > 100 µM
- TGI (HS 578T breast): > 100 µM

SMILES: C=C(Br)CNC(=O)CCC(=O)NCC(=C)Br
- TGI (CAKI-1 renal): > 100 µM
- TGI (MCF7 breast): > 100 µM
- TGI (MALME-3M melanoma): > 100 µM
- TGI (UACC-62 melanoma): > 100 µM
- TGI (SNB-75 CNS): > 100 µM
- TGI (SR leukemia): > 100 µM
- TGI (SNB-19 CNS): > 100 µM
- TGI (HCT-15 colon): > 100 µM
- TGI (NCI/ADR-RES ovarian): > 100 µM
- TGI (HS 578T breast): > 100 µM

SMILES: N#C/C(N)=C(\C#N)NC(=O)C(=O)N/C(C#N)=C(\N)C#N
- TGI (CAKI-1 renal): > 100 µM
- TGI (MCF7 breast): > 100 µM
- TGI (MALME-3M melanoma): > 100 µM
- TGI (UACC-62 melanoma): > 100 µM
- TGI (SNB-75 CNS): > 100 µM
- TGI (SR leukemia): > 100 µM
- TGI (SNB-19 CNS): > 100 µM
- TGI (HCT-15 colon): > 100 µM
- TGI (NCI/ADR-RES ovarian): > 100 µM
- TGI (HS 578T breast): > 100 µM

SMILES: CCOC(=O)CCC(NC(=O)c1ccc(OCc2ccc3nc(-c4ccccc4)c(Cl)nc3c2)cc1)C(=O)OCC (centres undefined)
- TGI (CAKI-1 renal): > 100 µM
- TGI (MCF7 breast): > 31.6 µM
- TGI (MALME-3M melanoma): > 100 µM
- TGI (UACC-62 melanoma): > 31.6 µM
- TGI (SNB-75 CNS): 30.3 µM
- TGI (SR leukemia): > 31.6 µM
- TGI (SNB-19 CNS): 31.1 µM
- TGI (HCT-15 colon): > 31.6 µM
- TGI (NCI/ADR-RES ovarian): > 31.6 µM
- TGI (HS 578T breast): > 31.6 µM

SMILES: CCCCCCCCCCNC(=O)CCC(NC(=O)c1ccc(N(C)Cc2cnc3nc(N)nc(N)c3n2)cc1)C(=O)NCCCCCCCCCC (centres undefined)
- TGI (CAKI-1 renal): > 100 µM
- TGI (MCF7 breast): 15.3 µM
- TGI (MALME-3M melanoma): 37.7 µM
- TGI (UACC-62 melanoma): 49.5 µM
- TGI (SNB-75 CNS): 32.1 µM
- TGI (SR leukemia): > 24.5 µM
- TGI (SNB-19 CNS): 31.7 µM
- TGI (HCT-15 colon): > 100 µM
- TGI (NCI/ADR-RES ovarian): > 100 µM
- TGI (HS 578T breast): 20.8 µM

SMILES: O=C1C(c2c(O)[nH]c3ccc(Br)cc23)=Nc2ccccc21
- TGI (CAKI-1 renal): 38.8 µM
- TGI (MCF7 breast): 3.72 µM
- TGI (MALME-3M melanoma): 44.4 µM
- TGI (UACC-62 melanoma): 28 µM
- TGI (SNB-75 CNS): 28.4 µM
- TGI (SR leukemia): > 100 µM
- TGI (SNB-19 CNS): 28.1 µM
- TGI (HCT-15 colon): > 100 µM
- TGI (NCI/ADR-RES ovarian): > 100 µM
- TGI (HS 578T breast): 54.6 µM

SMILES: CC(C)(C)OC(=O)N1C(c2cccnc2)=CC[C@H]2C3CC=C(c4cccnc4)[C@@]3(C)CC[C@@H]21 (some centres undefined)
- TGI (CAKI-1 renal): 30.2 µM
- TGI (MCF7 breast): 11.1 µM
- TGI (MALME-3M melanoma): 13.3 µM
- TGI (UACC-62 melanoma): 8.31 µM
- TGI (SNB-75 CNS): 19.7 µM
- TGI (SR leukemia): 22.2 µM
- TGI (SNB-19 CNS): 17.2 µM
- TGI (HCT-15 colon): 13.8 µM
- TGI (NCI/ADR-RES ovarian): 34.9 µM
- TGI (HS 578T breast): 24.7 µM

SMILES: Cn1c2ccccc2c(=O)c2cccc(C(=O)NC(CCC(N)=O)C(=O)O)c21 (centres undefined)
- TGI (CAKI-1 renal): > 100 µM
- TGI (MCF7 breast): > 100 µM
- TGI (MALME-3M melanoma): > 100 µM
- TGI (UACC-62 melanoma): > 100 µM
- TGI (SNB-75 CNS): > 100 µM
- TGI (SR leukemia): > 100 µM
- TGI (SNB-19 CNS): > 100 µM
- TGI (HCT-15 colon): > 100 µM
- TGI (NCI/ADR-RES ovarian): > 100 µM
- TGI (HS 578T breast): > 100 µM

SMILES: CCCC(=O)OC1C(CO)OC(n2cc(F)c(=O)[nH]c2=O)C1F (centres undefined)
- TGI (CAKI-1 renal): > 100 µM
- TGI (MCF7 breast): > 100 µM
- TGI (MALME-3M melanoma): > 100 µM
- TGI (UACC-62 melanoma): > 100 µM
- TGI (SNB-75 CNS): > 100 µM
- TGI (SR leukemia): > 100 µM
- TGI (HCT-15 colon): > 100 µM
- TGI (NCI/ADR-RES ovarian): > 100 µM
- TGI (HS 578T breast): > 100 µM

SMILES: N#Cc1cnc(N)nc1NCC1(CO)CC(CCc2ccccc2)C1 (centres undefined)
- TGI (CAKI-1 renal): > 100 µM
- TGI (MCF7 breast): > 100 µM
- TGI (MALME-3M melanoma): > 100 µM
- TGI (UACC-62 melanoma): > 100 µM
- TGI (SNB-75 CNS): > 83.1 µM
- TGI (SR leukemia): > 100 µM
- TGI (SNB-19 CNS): > 100 µM
- TGI (HCT-15 colon): > 100 µM
- TGI (NCI/ADR-RES ovarian): > 100 µM
- TGI (HS 578T breast): > 100 µM

SMILES: O=C1C(Cl)=C(Nc2ccc(S(=O)(=O)Nc3ccccn3)cc2)C(=O)c2ccccc21
- TGI (CAKI-1 renal): > 52.1 µM
- TGI (MCF7 breast): 12.9 µM
- TGI (MALME-3M melanoma): 7.6 µM
- TGI (UACC-62 melanoma): 11.8 µM
- TGI (SNB-75 CNS): 21.9 µM
- TGI (SR leukemia): 16.2 µM
- TGI (SNB-19 CNS): 38.7 µM
- TGI (HCT-15 colon): 23.2 µM
- TGI (NCI/ADR-RES ovarian): > 40.9 µM
- TGI (HS 578T breast): 48 µM
